In test [1] the target is T1, MAGL (Homo sapiens, UniProt Q99685).
T1 sequence (Q99685 1-303): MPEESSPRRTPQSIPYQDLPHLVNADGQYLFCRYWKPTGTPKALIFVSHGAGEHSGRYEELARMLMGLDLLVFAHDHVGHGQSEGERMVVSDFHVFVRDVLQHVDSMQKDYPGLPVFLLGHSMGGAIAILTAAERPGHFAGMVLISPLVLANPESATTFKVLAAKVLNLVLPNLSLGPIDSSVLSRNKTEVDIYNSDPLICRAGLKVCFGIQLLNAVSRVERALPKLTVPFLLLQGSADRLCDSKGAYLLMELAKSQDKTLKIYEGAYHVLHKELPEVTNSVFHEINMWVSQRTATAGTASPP
Nature of the test: In vitro competitive activity-based protein profiling, MAGL, human. The conditions noted are these: for inhibition at 1 µM: read-out: MAGL % inh. 1 μM (human); for inhibition at 10 µM: read-out: MAGL % inh. (human) at 10 uM.

Test [2] deals with T2, MAGL (Mus musculus, UniProt O35678).
T2 sequence (O35678 1-303): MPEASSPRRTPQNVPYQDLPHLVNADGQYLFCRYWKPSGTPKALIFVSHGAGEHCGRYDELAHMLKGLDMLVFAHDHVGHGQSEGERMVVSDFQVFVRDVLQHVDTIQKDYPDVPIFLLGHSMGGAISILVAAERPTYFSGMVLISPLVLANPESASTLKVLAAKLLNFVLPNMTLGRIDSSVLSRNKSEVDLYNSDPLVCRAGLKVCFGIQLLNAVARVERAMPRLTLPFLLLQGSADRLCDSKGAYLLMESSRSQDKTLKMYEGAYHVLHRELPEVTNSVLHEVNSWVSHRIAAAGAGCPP
Nature of the test: In vitro competitive activity-based protein profiling, MAGL, mouse. The conditions noted are these: read-out: MAGL % inh. 1 μM (mouse).

The target of test [3] is T3, FAAH (Homo sapiens, UniProt O00519).
T3 sequence (O00519 1-579): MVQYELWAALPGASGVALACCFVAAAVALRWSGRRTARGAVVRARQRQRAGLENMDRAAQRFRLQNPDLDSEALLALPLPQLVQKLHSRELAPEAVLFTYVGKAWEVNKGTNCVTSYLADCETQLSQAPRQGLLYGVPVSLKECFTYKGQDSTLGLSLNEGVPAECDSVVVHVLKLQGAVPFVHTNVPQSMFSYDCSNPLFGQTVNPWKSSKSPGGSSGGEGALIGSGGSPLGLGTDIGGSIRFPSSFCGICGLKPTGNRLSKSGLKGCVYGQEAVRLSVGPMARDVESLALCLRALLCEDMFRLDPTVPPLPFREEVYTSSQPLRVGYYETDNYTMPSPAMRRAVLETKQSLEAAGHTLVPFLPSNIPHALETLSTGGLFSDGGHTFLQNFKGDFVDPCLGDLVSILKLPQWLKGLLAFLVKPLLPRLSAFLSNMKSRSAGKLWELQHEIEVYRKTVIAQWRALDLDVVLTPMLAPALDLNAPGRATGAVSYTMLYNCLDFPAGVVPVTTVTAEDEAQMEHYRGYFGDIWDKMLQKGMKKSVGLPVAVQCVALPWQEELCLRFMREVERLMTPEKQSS
Nature of the test: In vitro competitive activity-based protein profiling, FAAH, human. The conditions noted are these: for inhibition at 1 µM: read-out: FAAH % inh. 1 μM (human).

The target of test [4] is T4, FAAH (Mus musculus, UniProt O08914).
T4 sequence (O08914 1-579): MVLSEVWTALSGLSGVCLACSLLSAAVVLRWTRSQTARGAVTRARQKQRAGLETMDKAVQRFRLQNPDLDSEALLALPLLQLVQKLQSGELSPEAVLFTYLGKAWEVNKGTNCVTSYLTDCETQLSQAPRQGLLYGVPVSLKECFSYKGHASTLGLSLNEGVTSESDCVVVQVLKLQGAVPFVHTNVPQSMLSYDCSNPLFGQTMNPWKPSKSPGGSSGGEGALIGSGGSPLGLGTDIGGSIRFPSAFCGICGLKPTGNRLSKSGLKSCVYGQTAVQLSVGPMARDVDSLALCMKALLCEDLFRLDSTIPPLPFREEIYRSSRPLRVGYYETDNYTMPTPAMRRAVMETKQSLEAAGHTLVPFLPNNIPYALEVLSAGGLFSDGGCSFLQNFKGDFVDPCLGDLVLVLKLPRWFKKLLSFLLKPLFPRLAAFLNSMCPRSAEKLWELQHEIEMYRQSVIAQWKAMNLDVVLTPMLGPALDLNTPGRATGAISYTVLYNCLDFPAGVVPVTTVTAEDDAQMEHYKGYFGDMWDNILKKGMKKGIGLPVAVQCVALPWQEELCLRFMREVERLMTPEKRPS
Nature of the test: In vitro competitive activity-based protein profiling, FAAH, mouse. To be noted: read-out: FAAH % inh. 1 μM (mouse).

A word on the IC50: it is the concentration that gives 50% inhibition. Consider `O=C(O)c1ccn(C(=O)N2CCN(Cc3cccc(Oc4cccc(Cl)c4)c3)CC2)n1` [Example 84, 1-(4-(3-(3-chlorophenoxy)benzyl)piperazine-1-carbonyl)-1H-pyrazole-3-carboxylic acid], for which the inhibition at 1 µM on MAGL [1] is greater than 75%; at MAGL [2], greater than 75%; at FAAH [3], 0 to 25%; at FAAH [4], 50 to 75%. This compound registered an IC50 on FAAH [3] of 0.1 to 1 µM.

On to `O=C(O)c1ccn(C(=O)N2C[C@H]3C[C@@H](OCc4cc(F)cc(Cl)c4)C[C@H]3C2)n1` [Example 193, 1-(cis-5-((3-chloro-5-fluorobenzyl)oxy)octahydrocyclopenta [c]pyrrole-2-carbonyl)-1H-pyrazole-3-carboxylic acid], for which the inhibition at 1 µM was 25 to 50% on MAGL [1], 25 to 50% at MAGL [2], greater than 75% on FAAH [3] and greater than 75% at FAAH [4].

As to `C[C@H]1CCCCN1c1cc(C(F)(F)F)ccc1CN1CCN(C(=O)n2ccc(C(=O)O)n2)CC1` [Example 110, (S)-1-(4-(2-(2-methylpiperidin-1-yl)-4-(trifluoromethyl)benzyl)piperazine-1-carbonyl)-1H-pyrazole-3-carboxylic acid], the inhibition at 1 µM is greater than 75% on MAGL [1], greater than 75% on MAGL [2], 0 to 25% at FAAH [3] and 0 to 25% at FAAH [4].

On to `O=C(O)c1nn(C(=O)N2CC3CN(Cc4ccc(-c5nnn[nH]5)cc4C(F)(F)F)CC3C2)cc1Cl` (centres unmarked) [Example 141, 1-(5-(4-(1H-tetrazol-5-yl)-2-(trifluoromethyl)benzyl)octahydro-pyrrolo[3,4-c]pyrrole-2-carbonyl)-4-chloro-1H-pyrazole-3-carboxylic acid], for which, at MAGL [1], the inhibition at 10 µM was greater than 75%. Further, the inhibition at 1 µM at MAGL [2] and at FAAH [4] was 0 to 25% throughout. Moreover, on FAAH [3] (read-out: FAAH % inh. (human) at 50 uM), the inhibition at 50 µM was greater than 75%.

On to `O=C(O)c1ccn(C(=O)N2CCN(Cc3cc(Cl)cc(Oc4ccc(Cl)cc4)c3)CC2)n1` [Example 19, 1-(4-(3-Chloro-5-(4-chlorophenoxy)benzyl)piperazine-1-carbonyl)-1H-pyrazole-3-carboxylic Acid], for which the inhibition at 1 µM on MAGL [1], at MAGL [2], on FAAH [3] and on FAAH [4] was greater than 75% each time. This compound also yielded an IC50 on FAAH [3] of 0.1 to 1 µM.

Turning to `O=C(O)c1ccn(C(=O)N2CCC(NCc3cccc(Oc4ccc(Cl)cc4)c3)CC2)n1` [Example 190, 1-(4-((3-(4-chlorophenoxy)benzyl)amino)piper-idine-1-carbonyl)-1H-pyrazole-3-carboxylic acid], the inhibition at 1 µM at MAGL [1] was 25 to 50%; on MAGL [2], 0 to 25%; on FAAH [3], 25 to 50%; at FAAH [4] it was 50 to 75%.

With `O=C(O)c1ccn(C(=O)N2C[C@H]3C[C@H](OCc4cc(F)cc(Cl)c4)C[C@H]3C2)n1` [Example 53, 1-(trans-5-((3-chloro-5-fluorobenzyl)oxy)octahydrocyclopenta [c]pyrrole-2-carbonyl)-1H-pyrazole-3-carboxylic acid], the inhibition at 1 µM at MAGL [1], at MAGL [2], on FAAH [3] and on FAAH [4] was greater than 75% in each case. This compound also had an IC50 at FAAH [3] of 0.1 to 1 µM.

Turning to `O=C(O)c1ccn(C(=O)N2CCN(Cc3ccc(Cl)cc3N3CCN(C4CC4)CC3)CC2)n1` [Example 97, 1-(4-(4-chloro-2-(4-cyclopropylpiper-azin-1-yl)benzyl)piperazine-1-carbonyl)-1H-pyrazole-3-carboxylic acid], the inhibition at 1 µM is greater than 75% at MAGL [1], greater than 75% at MAGL [2], 0 to 25% at FAAH [3] and 0 to 25% at FAAH [4].

For `O=C(O)c1ccn(C(=O)N2CCN(Cc3cccc(Oc4ccccn4)c3)CC2)n1` [Example 52], the inhibition at 1 µM is greater than 75% at MAGL [1], greater than 75% at MAGL [2], 0 to 25% at FAAH [3] and 0 to 25% on FAAH [4].

`O=C(O)c1nn(C(=O)N2CCC3(CCCN3Cc3cc4ccc(C(F)(F)F)cc4s3)CC2)cc1C(F)(F)F` [Example 149, 4-(trifluoromethyl)-1-(1-((6-(trifluoromethyl)benzo[b]thiophen-2-yl)methyl)-1,8-diazaspiro[4.5]decane-8-carbonyl)-1H-pyrazole-3-carboxylic acid]: the IC50 at MAGL [1] fell in the range of 0.1 to 1 µM; on FAAH [3], 1 to 10 µM. In addition, the inhibition at 1 µM on MAGL [1] was greater than 75%; at MAGL [2], greater than 75%; on FAAH [3] it was 25 to 50%; at FAAH [4], greater than 75%.

Turning to `O=C(O)c1ccn(C(=O)N2CCC3(CCN(Cc4c(Cl)cccc4C(F)(F)F)C3)CC2)n1` [Example 74, 1-(2-(2-chloro-6-(trifluoromethyl)benzyl)-2,8-diazaspiro[4.5]decane-8-carbonyl)-1H-pyrazole-3-carboxylic acid], the inhibition at 1 µM on MAGL [1] is greater than 75%; at MAGL [2] it was greater than 75%; on FAAH [3] it was 0 to 25%; on FAAH [4] it was 0 to 25%.

`O=C(O)c1nn(C(=O)N2CCN(Cc3ccc(-c4nnn[nH]4)cc3C(F)(F)F)CC2)cc1Cl` [Example 142, 1-(4-(4-(1H-tetrazol-5-yl)-2-(trifluoromethyl)benzyl)piperazine-1-carbonyl)-4-chloro-1H-pyrazole-3-carboxylic acid]: the inhibition at 10 µM at MAGL [1] is greater than 75%. The inhibition at 1 µM at MAGL [2], on FAAH [3] and on FAAH [4] was 0 to 25% in each case.

For `NC(=O)c1ccn(C(=O)N2CCC3(CCCN3Cc3ccc(C(F)(F)F)cc3N3CCCC3)CC2)n1` [Example 174, 1-(1-(2-(pyrrolidin-1-yl)-4-(trifluoromethyl)benzyl)-1,8-diazaspiro[4.5]decane-8-carbonyl)-1H-pyrazole-3-carboxamide], the inhibition at 1 µM on MAGL [1] is greater than 75%; at MAGL [2], greater than 75%; on FAAH [3], 0 to 25%; at FAAH [4], 25 to 50%.

In the case of `O=C(O)c1ccn(C(=O)N2CCN(Cc3ccc(C(F)(F)F)cc3N3CCN4CCC[C@H]4C3)CC2)n1` [Example 49, (S)-1-(4-(2-(hexahydropyrrolo [1,2-a]pyrazin-2(1H)-yl)-4-(trifluoromethyl)benzyl)piperazine-1-carbonyl)-1H-pyrazole-3-carboxylic acid], the inhibition at 1 µM is greater than 75% on MAGL [1], greater than 75% on MAGL [2], 0 to 25% at FAAH [3] and 0 to 25% at FAAH [4].

With `CN(Cc1ccc(Cl)cc1N1CCCC1)C1(C)CCN(C(=O)n2ccc(C(=O)O)n2)CC1` [Example 46, 1-(4-((4-chloro-2-(pyrrolidin-1-yl)benzyl)(methyl)amino)-4-methylpiperidine-1-carbonyl)-1H-pyrazole-3-carboxylic acid], the inhibition at 1 µM was greater than 75% at MAGL [1], greater than 75% on MAGL [2], 0 to 25% on FAAH [3] and 0 to 25% at FAAH [4].

For the origin of these results see patent US10266497B2 (ABIDE THERAPEUTICS, INC., priority 2017, dated 2019).
